Test results as given in patent US20120316183A1, “NOVEL SOLVATES OF METHYLCARBAMATE” (Bayer Intellecutal Property GmbH, priority 2009, published 2012).

Assay: processability of the solid form (grinding / micronization, flowability, sievability)
Type: physicochemical

Row | grindability (micronization step) | flowability and sievability (compared to modification I of the compound of the formula (I)) | Compound | fineness and tail of coarse material in the micronisate (compared to modification I, micronisate)
1 | difficult to grind | – | COC(=O)Nc1c(N)nc(-c2nn(Cc3ccccc3F)c3ncccc23)nc1N [modification I, methyl {4,6-diamino-2-[1-(2-fluorobenzyl)-1H-pyrazolo[3,4-b]pyridin-3-yl]pyrimidin-5-yl}carbamate] | –
2 | – | better flowability and sievability | COC(=O)Nc1c(N)nc(-c2nn(Cc3ccccc3F)c3ncccc23)nc1N [semi-ethanol solvate of the formula (Ia), semi-ethanol solvate of methyl {4,6-diamino-2-[1-(2-fluorobenzyl)-1H-Pyrazolo[3,4-b]pyridin-3-yl]pyrimidin-5-yl}carbamate] | higher fine-ness and a reduced tail of coarse material
